In ChEMBL document CHEMBL4825722, “Discovery of Potent Selective Nonzinc Binding Autotaxin Inhibitor BIO-32546” (ACS Med Chem Lett, 2021):
Values after ≈ are worked out from the molar mass of the structure shown.

Key:
[1] = Tmax in dog at 1.0 mg/kg, po; format: ADME, organism-based, Canis lupus familiaris; details: in vivo
[2] = Volume of distribution at steady state in dog at 0.2 mg/kg, iv; format: ADME, organism-based, Canis lupus familiaris; details: in vivo, read-out: Vdss
[3] = molecular target: T1, Sphingosine 1-phosphate receptor 4 (Homo sapiens, UniProt O95977); assay: Inhibition of S1P4 (unknown origin)
T1 sequence (O95977 whole entry): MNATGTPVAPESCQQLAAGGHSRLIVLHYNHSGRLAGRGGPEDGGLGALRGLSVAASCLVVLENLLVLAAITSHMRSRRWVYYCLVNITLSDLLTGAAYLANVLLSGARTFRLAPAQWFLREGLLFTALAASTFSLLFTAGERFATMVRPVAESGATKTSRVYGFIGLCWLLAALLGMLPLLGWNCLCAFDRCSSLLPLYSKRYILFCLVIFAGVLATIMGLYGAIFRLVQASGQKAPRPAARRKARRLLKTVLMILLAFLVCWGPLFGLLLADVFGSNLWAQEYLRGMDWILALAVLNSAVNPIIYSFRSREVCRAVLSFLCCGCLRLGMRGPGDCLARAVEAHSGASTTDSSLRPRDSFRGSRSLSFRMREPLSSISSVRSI

[4] = Clearance in rat at 1.0 mg/kg, iv; format: ADME, organism-based; details: in vivo, time <=24 hrs
[5] = Oral bioavailability in dog at 1.0 mg/kg; format: ADME, organism-based, Canis lupus familiaris; details: in vivo
[6] = molecular target: Sphingosine 1-phosphate receptor 1 (Homo sapiens, UniProt P21453); assay: Inhibition of S1P1 (unknown origin)
Chain of Sphingosine 1-phosphate receptor 1 (P21453 whole entry): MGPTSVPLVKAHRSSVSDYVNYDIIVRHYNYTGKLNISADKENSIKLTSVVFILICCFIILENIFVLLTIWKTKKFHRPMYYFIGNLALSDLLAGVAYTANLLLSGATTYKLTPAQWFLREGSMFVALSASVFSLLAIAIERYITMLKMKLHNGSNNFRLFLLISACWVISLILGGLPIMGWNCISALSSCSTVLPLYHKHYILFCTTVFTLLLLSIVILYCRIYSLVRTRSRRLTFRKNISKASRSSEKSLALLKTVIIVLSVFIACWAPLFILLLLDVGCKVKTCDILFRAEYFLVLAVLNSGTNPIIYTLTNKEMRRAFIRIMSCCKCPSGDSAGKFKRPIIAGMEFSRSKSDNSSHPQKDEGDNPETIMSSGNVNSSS

[7] = Drug concentration in Sprague-Dawley rat at 0.1 mg/kg, po after 6 hrs by LC-MS/MS analysis; format: ADME, organism-based; details: in vivo, read-out: Drug uptake
[8] = Apparent permeability across basolateral to apical side in human Caco-2 cells incubated for 120 mins by lucifer yellow based LC-MS/MS analysis
[9] = AUC (0 to 24 hrs) in cynomolgus monkey at 0.2 mg/kg, iv; format: ADME, organism-based, Macaca fascicularis; set-up: time < 24 hr, route intravenous, dose 0.2 mg/kg; details: in vivo
hERG (KCNH2) = hERG (KCNH2) (Homo sapiens, UniProt Q12809); assay: Inhibition of human ERG at 10 uM by automated patch-clamp assay relative to control
Chain of hERG (KCNH2) (Q12809 whole entry): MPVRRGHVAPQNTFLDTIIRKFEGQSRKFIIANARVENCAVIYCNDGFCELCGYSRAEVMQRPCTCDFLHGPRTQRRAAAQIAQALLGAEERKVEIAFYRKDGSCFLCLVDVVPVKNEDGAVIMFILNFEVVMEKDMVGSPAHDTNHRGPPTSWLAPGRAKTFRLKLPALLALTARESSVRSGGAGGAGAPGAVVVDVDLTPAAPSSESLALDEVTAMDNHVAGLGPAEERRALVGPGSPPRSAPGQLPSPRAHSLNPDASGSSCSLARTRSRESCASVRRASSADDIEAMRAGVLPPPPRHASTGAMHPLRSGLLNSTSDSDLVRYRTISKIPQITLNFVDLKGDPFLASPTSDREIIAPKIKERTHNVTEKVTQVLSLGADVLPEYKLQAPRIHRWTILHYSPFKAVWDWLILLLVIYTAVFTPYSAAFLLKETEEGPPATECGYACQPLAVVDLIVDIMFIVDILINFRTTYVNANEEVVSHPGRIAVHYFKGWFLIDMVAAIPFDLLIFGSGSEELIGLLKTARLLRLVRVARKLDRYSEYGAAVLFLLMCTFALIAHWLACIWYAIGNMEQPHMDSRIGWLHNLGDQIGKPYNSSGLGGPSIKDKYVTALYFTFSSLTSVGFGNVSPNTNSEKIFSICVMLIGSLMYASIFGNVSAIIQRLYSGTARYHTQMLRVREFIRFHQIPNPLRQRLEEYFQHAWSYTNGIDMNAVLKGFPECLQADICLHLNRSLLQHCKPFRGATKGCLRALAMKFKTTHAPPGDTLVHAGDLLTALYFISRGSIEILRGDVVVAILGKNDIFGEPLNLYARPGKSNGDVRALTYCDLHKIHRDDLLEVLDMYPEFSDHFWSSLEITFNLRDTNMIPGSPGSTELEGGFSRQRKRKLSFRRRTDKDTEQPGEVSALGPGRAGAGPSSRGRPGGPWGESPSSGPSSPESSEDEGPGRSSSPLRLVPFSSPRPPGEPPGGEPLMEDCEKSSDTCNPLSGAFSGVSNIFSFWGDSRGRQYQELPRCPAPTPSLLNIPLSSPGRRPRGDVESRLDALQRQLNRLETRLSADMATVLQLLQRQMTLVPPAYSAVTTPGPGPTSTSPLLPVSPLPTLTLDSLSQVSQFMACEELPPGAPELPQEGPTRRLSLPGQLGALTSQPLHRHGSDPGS

[10] = Cmax in C57BL/6 mouse brain at 10 mg/kg, po; format: ADME, organism-based; set-up: route oral, dose 10 mg/kg
[11] = molecular target: Sphingosine 1-phosphate receptor 5 (Homo sapiens, UniProt Q9H228); assay: Inhibition of S1P5 (unknown origin)
Chain of Sphingosine 1-phosphate receptor 5 (Q9H228 whole entry): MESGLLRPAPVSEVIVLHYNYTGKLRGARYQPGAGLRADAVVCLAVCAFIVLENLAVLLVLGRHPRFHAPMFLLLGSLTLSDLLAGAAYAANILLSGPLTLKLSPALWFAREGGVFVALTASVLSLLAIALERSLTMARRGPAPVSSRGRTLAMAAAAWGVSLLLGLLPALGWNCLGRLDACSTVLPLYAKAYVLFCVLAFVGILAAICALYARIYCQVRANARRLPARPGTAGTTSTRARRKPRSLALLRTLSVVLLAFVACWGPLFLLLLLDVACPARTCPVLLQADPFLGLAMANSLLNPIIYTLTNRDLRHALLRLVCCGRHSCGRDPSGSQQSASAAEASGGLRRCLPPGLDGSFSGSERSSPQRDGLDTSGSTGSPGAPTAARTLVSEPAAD

[12] = molecular target: T2, Lysophosphatidic acid receptor 3 (Homo sapiens, UniProt Q9UBY5); assay: Inhibition of LPA3 (unknown origin)
T2 sequence (Q9UBY5 whole entry): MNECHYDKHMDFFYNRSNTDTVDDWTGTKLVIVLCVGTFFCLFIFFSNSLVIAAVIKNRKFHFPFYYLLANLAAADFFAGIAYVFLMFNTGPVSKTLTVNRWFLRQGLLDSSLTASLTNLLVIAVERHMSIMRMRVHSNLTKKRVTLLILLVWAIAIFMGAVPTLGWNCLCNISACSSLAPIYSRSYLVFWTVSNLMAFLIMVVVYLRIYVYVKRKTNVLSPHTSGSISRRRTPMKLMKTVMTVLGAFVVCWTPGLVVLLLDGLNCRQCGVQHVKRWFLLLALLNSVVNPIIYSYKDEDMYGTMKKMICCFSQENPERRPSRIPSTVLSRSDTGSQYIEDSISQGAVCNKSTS

[13] = Solubility of the compound at pH 7.0 by shake flask method; details: buffer
Cytochrome P450 3A4 = Cytochrome P450 3A4 (Homo sapiens, UniProt P08684); assay: Inhibition of CYP3A4 in human liver microsomes incubated for 15 mins in presence of NADPH by LC-MS/MS analysis; format: ADME
Chain of Cytochrome P450 3A4 (P08684 whole entry): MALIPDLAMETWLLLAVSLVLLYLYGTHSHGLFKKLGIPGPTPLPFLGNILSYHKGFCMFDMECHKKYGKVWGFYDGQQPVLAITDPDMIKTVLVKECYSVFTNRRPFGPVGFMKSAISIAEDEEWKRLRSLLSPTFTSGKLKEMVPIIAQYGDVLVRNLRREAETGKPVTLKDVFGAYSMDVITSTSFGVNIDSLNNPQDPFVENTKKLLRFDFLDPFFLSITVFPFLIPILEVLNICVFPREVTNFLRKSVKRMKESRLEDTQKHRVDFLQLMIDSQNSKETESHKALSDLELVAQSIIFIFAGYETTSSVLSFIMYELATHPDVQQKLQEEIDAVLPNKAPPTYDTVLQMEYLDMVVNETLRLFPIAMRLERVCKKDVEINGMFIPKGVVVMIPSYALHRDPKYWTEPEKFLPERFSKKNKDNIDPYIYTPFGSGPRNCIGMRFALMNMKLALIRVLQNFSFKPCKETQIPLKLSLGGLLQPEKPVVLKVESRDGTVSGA

[14] = Tmax in C57BL/6 mouse brain at 2.32 mg/kg, iv; format: ADME, organism-based
[15] = Tmax in C57BL/6 mouse brain at 10 mg/kg, po; format: ADME, organism-based
Autotaxin = Autotaxin (Homo sapiens, UniProt Q13822); assay: Inhibition of human ATX assessed as reduction in LPA formation using FS-3 as substrate preincubated for 30 mins followed by substrate addition and measured after 2 hrs by FRET assay
[16] = AUC (0 to 24 hrs) in C57BL/6 mouse plasma at 10 mg/kg, po; format: ADME, organism-based; set-up: time < 24 hr, route oral, dose 10 mg/kg
Rattus norvegicus [17] = assay: Effect on Sprague-Dawley rat CFA inflammatory […] model assessed as reduction in 20:4 LPA level at 0.3 mg/kg after 6 hrs by LC-MS/MS analysis; format: functional; set-up: scale not given: the % may be the effect or the level left
[18] = Total brain to plasma concentration ratio in rat at 10 mg/kg, po measured after 4 hrs; format: ADME, organism-based; details: brain and plasma, read-out: BPR
[19] = Cmax in C57BL/6 mouse brain at 2.32 mg/kg, iv; format: ADME, organism-based; set-up: route intravenous, dose 2.32 mg/kg
[20] = Unbound Cmax in C57BL/6 mouse brain at 10 mg/kg, po; format: ADME, organism-based; details: in vivo
[21] = molecular target: Voltage-gated inwardly rectifying potassium channel KCNH2 (Homo sapiens, UniProt Q12809); assay: Inhibition of human ERG by automated patch-clamp assay
Chain of Voltage-gated inwardly rectifying potassium channel KCNH2 (Q12809 whole entry): as the sequence (Q12809 whole entry) above

Rattus norvegicus [22] = assay: Effect on Sprague-Dawley rat CFA inflammatory […] model assessed as reduction in 20:4 LPA level at 0.1 mg/kg, po after 6 hrs by LC-MS/MS analysis; format: functional; set-up: scale not given: the % may be the effect or the level left
[23] = AUC (0 to 24 hrs) in rat at 10 mg/kg, po; format: ADME, organism-based; set-up: time < 24 hr, route oral, dose 10 mg/kg; details: in vivo
[24] = Cmax in dog at 1.0 mg/kg, po; format: ADME, organism-based, Canis lupus familiaris; set-up: route oral, dose 1 mg/kg; details: in vivo
[25] = Tmax in rat at 10 mg/kg, po; format: ADME, organism-based; details: in vivo
[26] = Drug concentration in Sprague-Dawley rat at 10 mg/kg, po after 6 hrs by LC-MS/MS analysis; format: ADME, organism-based; details: in vivo, read-out: Drug uptake
[27] = Half life in rat at 1.0 mg/kg, iv; format: ADME, organism-based; details: in vivo
[28] = Tmax in cynomolgus monkey at 1.0 mg/kg, po; format: ADME, organism-based, Macaca fascicularis; details: in vivo
[29] = AUC (0 to 24 hrs) in cynomolgus monkey at 1.0 mg/kg, po; format: ADME, organism-based, Macaca fascicularis; set-up: time < 24 hr, route oral, dose 1 mg/kg; details: in vivo

C[C@@H](c1ccc2ccc(O[C@H]3CC[C@@H](C(F)(F)F)CC3)c(C(F)(F)F)c2c1)N1C2CCC1CC(C(=O)O)C2 (some centres not stated)
Tmax [1]: 2 h
Vd [2]: 2 L/kg
IC50 [3]: > 10 µM
clearance [4]: 29 mL/min/kg
bioavailability [5]: 69%
IC50 [6]: > 10 µM
concentration at 6 h [7]: 0.95 ng/mL
Papp B→A at 2 h [8]: 40.3 ×10⁻⁶ cm/s
AUC(0-t) at 24 h [9]: 369 ng·h/mL
inhibition at 10 µM (hERG (KCNH2)): 21.3%
Cmax [10]: 823 ng/mL
IC50 [11]: > 10 µM
IC50 [12]: > 10 µM
solubility thermodynamic [13]: 73.2 µg/mL (≈ 135 µM)
IC50 (Cytochrome P450 3A4): > 10 µM
Tmax [14]: 3 h
Tmax [15]: 7 h
IC50 (Autotaxin): 0.001 µM
AUC(0-t) at 24 h [16]: 12200 ng·h/mL
Activity (Rattus norvegicus [17]): 92%
Kp at 4 h [18]: 0.2
Cmax [19]: 274 ng/mL
fCmax [20]: 1.5 nM
IC50 [21]: > 10 µM
Activity (Rattus norvegicus [22]): 89%
AUC(0-t) at 24 h [23]: 3970 ng·h/mL
Cmax [24]: 376 ng/mL
Tmax [25]: 1.6 h
concentration at 6 h [26]: 188 ng/mL
half-life [27]: 3 h
Tmax [28]: 4 h
AUC(0-t) at 24 h [29]: 614 ng·h/mL
